The target in assay [1] is Bone morphogenetic protein receptor type-1B (Homo sapiens, UniProt O00238).
For assay [2], the target named is Ribosomal protein S6 kinase alpha-1 (Homo sapiens, UniProt Q15418).
Assay [3] addresses ATP-dependent RNA helicase DDX3X (Homo sapiens, UniProt O00571).
Assay [4] addresses T1, Probable ATP-dependent RNA helicase DDX6 (Homo sapiens, UniProt P26196).
T1 sequence (P26196 whole entry): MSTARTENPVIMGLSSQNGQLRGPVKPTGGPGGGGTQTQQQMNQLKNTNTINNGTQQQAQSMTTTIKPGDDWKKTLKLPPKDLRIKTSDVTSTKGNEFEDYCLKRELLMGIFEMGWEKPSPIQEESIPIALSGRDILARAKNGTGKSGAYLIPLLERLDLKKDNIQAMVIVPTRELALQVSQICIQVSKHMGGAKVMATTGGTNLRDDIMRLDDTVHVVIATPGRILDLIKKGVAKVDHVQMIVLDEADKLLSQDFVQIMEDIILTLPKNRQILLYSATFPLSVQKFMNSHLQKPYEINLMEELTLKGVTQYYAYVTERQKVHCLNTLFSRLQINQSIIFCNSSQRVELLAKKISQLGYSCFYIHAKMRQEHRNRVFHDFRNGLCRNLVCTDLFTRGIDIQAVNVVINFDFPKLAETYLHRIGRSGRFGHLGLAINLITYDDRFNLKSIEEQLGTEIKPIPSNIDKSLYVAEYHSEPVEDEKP

For assay [5], the target named is Eukaryotic translation initiation factor 2-alpha kinase 1 (Homo sapiens, UniProt Q9BQI3).
Eukaryotic translation initiation factor 2-alpha kinase 1, sequence (Q9BQI3 whole entry): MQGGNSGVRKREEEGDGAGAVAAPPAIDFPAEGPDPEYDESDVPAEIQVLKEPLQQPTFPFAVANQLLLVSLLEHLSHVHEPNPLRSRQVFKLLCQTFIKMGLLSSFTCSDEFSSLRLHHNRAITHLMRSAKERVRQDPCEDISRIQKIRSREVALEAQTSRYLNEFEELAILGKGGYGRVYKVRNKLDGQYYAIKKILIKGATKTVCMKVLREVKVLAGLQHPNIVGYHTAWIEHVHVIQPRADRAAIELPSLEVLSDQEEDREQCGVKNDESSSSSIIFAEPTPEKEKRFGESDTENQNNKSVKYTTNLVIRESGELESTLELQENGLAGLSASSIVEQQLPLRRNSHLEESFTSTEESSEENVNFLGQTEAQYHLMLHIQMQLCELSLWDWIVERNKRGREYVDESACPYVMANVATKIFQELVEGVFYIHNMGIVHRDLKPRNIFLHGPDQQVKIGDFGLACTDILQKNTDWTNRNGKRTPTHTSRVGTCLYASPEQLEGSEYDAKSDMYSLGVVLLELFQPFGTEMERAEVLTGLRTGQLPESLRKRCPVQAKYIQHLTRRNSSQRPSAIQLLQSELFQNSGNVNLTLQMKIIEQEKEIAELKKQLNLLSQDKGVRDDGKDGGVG
For another assay, the target named is T2, Activin receptor type-1 (Homo sapiens, UniProt Q04771).
T2 sequence (Q04771 whole entry): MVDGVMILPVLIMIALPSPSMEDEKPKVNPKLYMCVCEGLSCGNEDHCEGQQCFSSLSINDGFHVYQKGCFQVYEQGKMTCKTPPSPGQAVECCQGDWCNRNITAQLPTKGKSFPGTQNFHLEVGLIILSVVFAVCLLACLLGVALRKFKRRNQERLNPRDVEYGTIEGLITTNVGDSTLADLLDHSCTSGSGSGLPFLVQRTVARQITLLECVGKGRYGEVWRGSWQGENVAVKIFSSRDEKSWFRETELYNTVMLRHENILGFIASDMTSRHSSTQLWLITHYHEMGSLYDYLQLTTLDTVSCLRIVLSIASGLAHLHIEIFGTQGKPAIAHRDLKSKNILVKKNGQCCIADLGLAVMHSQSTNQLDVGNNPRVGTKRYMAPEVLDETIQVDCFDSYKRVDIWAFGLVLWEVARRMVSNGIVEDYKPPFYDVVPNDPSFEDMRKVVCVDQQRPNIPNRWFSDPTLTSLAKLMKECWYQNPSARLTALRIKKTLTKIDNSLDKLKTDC

Assay [6] concerns the target Protein kinase C delta type (Homo sapiens, UniProt Q05655).
Assay [7] has as its target Tyrosine-protein kinase Yes (Homo sapiens, UniProt P07947).
Assay [8] has as its target cAMP-dependent protein kinase type II-alpha regulatory subunit (Homo sapiens, UniProt P13861).
Assay [9] concerns the target T3, Mitogen-activated protein kinase 15 (Homo sapiens, UniProt Q8TD08).
T3 sequence (Q8TD08 whole entry): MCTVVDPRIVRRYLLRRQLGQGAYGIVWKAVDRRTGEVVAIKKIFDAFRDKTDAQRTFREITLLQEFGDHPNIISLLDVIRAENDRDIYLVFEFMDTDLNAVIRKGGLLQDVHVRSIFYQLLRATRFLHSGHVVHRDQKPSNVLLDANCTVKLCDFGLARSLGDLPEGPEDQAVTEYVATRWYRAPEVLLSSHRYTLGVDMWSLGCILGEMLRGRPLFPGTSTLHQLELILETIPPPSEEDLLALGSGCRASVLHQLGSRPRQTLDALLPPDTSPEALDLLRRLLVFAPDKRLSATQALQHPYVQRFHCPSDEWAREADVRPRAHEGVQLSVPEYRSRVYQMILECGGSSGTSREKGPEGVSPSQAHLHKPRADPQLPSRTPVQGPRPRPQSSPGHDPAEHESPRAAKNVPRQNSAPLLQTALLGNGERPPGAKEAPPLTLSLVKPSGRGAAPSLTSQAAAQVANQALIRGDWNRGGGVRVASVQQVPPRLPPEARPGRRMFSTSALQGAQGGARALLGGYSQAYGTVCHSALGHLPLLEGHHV

pKd: −log10 of the molar value. Calls of active or inactive are those of the source. Rule as the data show it, for most assays here: actives have a measured Kd and inactives only a lower limit.

One may read the Kd as the constant that tells how readily two partners part at equilibrium. Usually pKd stands for the Kd on a negative log10 scale, so that one unit is a factor of ten. Low readings indicate a high Kd, high ones a low Kd.
Also: in the data inactive means no Kd found up to 30 µM.

Protein kinase C delta type, sequence (Q05655 whole entry): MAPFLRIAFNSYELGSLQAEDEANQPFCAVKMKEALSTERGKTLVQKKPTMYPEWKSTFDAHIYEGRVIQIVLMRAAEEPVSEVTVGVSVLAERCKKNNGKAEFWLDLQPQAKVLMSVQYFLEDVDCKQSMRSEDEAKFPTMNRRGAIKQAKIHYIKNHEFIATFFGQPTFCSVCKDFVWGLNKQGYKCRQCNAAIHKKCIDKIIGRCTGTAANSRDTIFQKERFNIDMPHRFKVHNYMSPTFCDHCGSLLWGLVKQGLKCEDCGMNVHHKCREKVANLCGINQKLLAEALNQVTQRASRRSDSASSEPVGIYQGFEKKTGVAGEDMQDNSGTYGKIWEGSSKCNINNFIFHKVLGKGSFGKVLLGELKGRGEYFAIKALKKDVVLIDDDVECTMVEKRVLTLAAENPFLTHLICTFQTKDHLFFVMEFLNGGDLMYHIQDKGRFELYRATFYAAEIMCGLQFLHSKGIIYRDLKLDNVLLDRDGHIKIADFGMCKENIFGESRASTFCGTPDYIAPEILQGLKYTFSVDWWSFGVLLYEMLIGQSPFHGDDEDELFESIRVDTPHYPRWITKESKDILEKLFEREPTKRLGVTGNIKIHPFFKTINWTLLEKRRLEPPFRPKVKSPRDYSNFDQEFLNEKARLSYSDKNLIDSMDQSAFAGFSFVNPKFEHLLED
ATP-dependent RNA helicase DDX3X, sequence (O00571 whole entry): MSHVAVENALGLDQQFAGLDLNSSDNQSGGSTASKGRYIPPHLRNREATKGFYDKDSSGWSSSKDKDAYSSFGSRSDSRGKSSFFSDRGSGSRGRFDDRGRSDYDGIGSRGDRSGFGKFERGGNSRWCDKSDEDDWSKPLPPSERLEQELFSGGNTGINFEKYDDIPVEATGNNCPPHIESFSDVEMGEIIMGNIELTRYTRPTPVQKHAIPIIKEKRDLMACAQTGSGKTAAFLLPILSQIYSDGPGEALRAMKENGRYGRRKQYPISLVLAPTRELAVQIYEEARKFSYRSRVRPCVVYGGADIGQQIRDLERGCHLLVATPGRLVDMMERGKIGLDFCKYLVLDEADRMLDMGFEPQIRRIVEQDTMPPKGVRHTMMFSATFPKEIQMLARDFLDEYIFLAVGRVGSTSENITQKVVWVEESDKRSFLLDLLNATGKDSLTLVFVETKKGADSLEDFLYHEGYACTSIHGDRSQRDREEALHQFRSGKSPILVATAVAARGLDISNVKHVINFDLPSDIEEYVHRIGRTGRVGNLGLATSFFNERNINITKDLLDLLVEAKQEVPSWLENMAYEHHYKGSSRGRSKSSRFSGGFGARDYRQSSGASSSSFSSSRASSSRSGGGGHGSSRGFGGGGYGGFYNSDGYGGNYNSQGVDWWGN
Tyrosine-protein kinase Yes, sequence (P07947 whole entry): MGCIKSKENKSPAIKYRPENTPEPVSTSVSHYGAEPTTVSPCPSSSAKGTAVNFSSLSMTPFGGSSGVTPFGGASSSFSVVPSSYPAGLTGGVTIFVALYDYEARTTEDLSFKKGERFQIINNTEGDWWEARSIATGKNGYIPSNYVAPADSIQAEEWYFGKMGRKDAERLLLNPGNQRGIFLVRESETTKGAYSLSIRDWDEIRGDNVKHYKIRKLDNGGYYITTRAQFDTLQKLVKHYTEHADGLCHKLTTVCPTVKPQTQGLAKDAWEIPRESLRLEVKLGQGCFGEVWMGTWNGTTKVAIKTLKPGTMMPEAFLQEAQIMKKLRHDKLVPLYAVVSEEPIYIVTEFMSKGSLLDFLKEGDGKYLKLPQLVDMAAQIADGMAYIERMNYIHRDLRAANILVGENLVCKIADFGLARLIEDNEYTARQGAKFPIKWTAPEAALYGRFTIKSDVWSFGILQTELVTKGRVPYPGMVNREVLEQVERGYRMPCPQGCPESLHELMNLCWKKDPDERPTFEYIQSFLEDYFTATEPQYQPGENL
Bone morphogenetic protein receptor type-1B, sequence (O00238 whole entry): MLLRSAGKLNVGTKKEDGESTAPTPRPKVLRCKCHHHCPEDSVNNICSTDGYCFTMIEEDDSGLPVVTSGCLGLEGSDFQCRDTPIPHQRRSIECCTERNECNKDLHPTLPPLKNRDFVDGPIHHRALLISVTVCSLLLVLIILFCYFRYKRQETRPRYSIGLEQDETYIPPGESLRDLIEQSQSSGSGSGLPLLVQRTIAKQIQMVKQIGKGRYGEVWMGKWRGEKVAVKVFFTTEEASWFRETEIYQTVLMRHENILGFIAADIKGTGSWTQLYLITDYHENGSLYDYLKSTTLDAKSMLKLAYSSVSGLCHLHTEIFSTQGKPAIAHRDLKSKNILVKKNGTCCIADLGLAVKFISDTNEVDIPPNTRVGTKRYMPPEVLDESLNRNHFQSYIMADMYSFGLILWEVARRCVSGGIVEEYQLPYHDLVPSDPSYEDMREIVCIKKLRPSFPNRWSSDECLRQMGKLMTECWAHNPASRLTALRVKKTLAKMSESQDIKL
cAMP-dependent protein kinase type II-alpha regulatory subunit, sequence (P13861 whole entry): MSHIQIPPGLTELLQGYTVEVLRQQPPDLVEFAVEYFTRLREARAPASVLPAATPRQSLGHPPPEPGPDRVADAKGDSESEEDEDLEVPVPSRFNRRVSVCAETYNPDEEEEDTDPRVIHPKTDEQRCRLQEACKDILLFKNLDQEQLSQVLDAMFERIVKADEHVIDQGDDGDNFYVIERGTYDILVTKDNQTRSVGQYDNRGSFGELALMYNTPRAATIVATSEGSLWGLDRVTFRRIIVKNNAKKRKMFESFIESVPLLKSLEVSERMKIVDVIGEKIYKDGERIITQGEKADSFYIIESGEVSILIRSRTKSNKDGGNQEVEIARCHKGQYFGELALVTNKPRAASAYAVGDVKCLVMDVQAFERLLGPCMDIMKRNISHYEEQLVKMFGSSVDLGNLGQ
Ribosomal protein S6 kinase alpha-1, sequence (Q15418 whole entry): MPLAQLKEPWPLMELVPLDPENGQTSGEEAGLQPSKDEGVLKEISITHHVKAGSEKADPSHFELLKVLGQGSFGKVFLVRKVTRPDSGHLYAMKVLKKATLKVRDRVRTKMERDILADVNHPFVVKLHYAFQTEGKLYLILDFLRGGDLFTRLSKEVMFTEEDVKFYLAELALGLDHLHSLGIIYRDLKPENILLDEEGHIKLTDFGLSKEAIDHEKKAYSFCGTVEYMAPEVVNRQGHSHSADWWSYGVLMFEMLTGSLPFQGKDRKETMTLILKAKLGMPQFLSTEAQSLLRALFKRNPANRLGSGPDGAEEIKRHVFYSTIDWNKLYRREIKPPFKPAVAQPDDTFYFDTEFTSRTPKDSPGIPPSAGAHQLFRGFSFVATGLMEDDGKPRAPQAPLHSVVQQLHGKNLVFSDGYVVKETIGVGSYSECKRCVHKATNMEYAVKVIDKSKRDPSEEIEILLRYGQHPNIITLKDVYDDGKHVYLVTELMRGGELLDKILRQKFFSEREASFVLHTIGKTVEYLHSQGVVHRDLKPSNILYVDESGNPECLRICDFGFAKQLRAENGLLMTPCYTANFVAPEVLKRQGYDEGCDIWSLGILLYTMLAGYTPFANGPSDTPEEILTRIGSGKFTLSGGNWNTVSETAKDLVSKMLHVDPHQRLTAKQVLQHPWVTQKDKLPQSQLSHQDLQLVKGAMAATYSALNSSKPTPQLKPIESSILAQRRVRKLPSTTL

For `O=C(c1ccc(F)c(F)c1Nc1ccc(I)cc1F)N1CC(O)([C@@H]2CCCCN2)C1` [COBIMETINIB], the Kd (in [1]; in assay [2]; in assay [3]; in [4]; in [5]; on Activin receptor type-1) was > 30 µM (inactive) in each case. Further, the Kd in assay [6], in assay [7], in [8] and in assay [9] was > 30 µM (inactive) throughout.
With `C1=C/COCc2cc(ccc2OCCN2CCCC2)Nc2nccc(n2)-c2cccc(c2)COC/1` [PACRITINIB], the Kd is > 30 µM (inactive) in assay [1]; > 30 µM (inactive) in assay [2]; > 30 µM (inactive) in [3]; > 30 µM (inactive) in assay [4]; > 30 µM (inactive) in assay [5]; 0.022 µM (active) at Activin receptor type-1. Also, the Kd in assay [6], in [7], in assay [8] and in assay [9] was > 30 µM (inactive) throughout.
`O=C(Nc1ccc(-c2ccnc(Nc3ccc(N4CCOCC4)cc3)n2)cc1)C1CCCN1` (stereo not given) [XL-019]: the Kd (in assay [1]; in [2]; in [3]; in assay [4]; in assay [5]; on Activin receptor type-1) was > 30 µM (inactive) in each case. The Kd in [6], in assay [7], in assay [8] and in assay [9] was > 30 µM (inactive) in each case.
On to `CNC(=O)CN1CCC(Oc2cc3c(Nc4cccc(Cl)c4F)ncnc3cc2OC)CC1` [SAPITINIB], for which the Kd (in assay [1]; in assay [2]; in [3]; in assay [4]; in assay [5]; on Activin receptor type-1) was > 30 µM (inactive) each time. In addition, the Kd in assay [6], in [7], in [8] and in assay [9] was > 30 µM (inactive) in each case.
Consider `Cc1cc([C@@H](C)Nc2ccccc2C(=O)O)c2nc(N3CCOCC3)cc(=O)n2c1` [AZD-6482], for which the Kd (in assay [1]; in assay [2]; in assay [3]; in [5]; at Activin receptor type-1; in assay [6]) was > 30 µM (inactive) in each case. Also, the Kd in [7], in [8] and in [9] was > 30 µM (inactive) each time. In addition, the pKd in [4] is 5.39.
For the compound `CC(=O)Nc1cccc(-n2c(=O)n(C3CC3)c(=O)c3c(Nc4ccc(I)cc4F)n(C)c(=O)c(C)c32)c1` [TRAMETINIB], the Kd (in [1]; in assay [2]; in [3]; in assay [4]; in [5]; at Activin receptor type-1) was > 30 µM (inactive) throughout. Further, the Kd in [6], in assay [7], in assay [8] and in [9] was > 30 µM (inactive) each time.
Regarding `COCCNCc1ccc(-c2cc3nccc(Oc4ccc(NC(=S)NC(=O)Cc5ccc(F)cc5)cc4F)c3s2)nc1` [GLESATINIB], the Kd (in [1]; in assay [2]; in [3]; in [4]; in [5]; at Activin receptor type-1) was > 30 µM (inactive) throughout. Besides, the Kd in assay [6], in assay [7], in assay [8] and in [9] was > 30 µM (inactive) each time.
As for `CNS(=O)(=O)Nc1nccc(Cc2c(C)c3ccc(Oc4ncccn4)cc3oc2=O)c1F` [AVUTOMETINIB], the Kd (in assay [1]; in assay [2]; in [3]; in assay [4]; in assay [5]; at Activin receptor type-1) was > 30 µM (inactive) throughout. In addition, the Kd in assay [6], in assay [7], in [8] and in assay [9] was > 30 µM (inactive) each time.

Values taken from ChEMBL document CHEMBL3991601, “The target landscape of clinical kinase drugs” (Science, 2017).
